Where “and” joins values, the source holds several entries; their conditions need not be identical. Equal entries are not always repeated. Toxic doses and inconclusive results are not listed. Peptide text beside a SMILES is read from it. * marks the point of attachment. Boc = CC(C)(C)OC(=O)*
Tested on: BDF1 mice, B16 melanoma ip, median survival T/C
Assay: NCI In Vivo Anticancer Drug Screen. Data for tumor model B16 Melanoma (intraperitoneal) in B6D2F1 (BDF1) mice
Conditions: endpoint: median survival time, higher = longer survival
In short: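 Transplantable tumor model; survival or tumor size measured; reported as T/C, treated over vehicle control.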

[1] = dose: 3.12 mg/kg/injection, schedule: Q01DX009 (ip), vehicle: saline
[2] = dose: 6.25 mg/kg/injection, schedule: Q01DX009 (ip), vehicle: saline
[3] = dose: 12.5 mg/kg/injection, schedule: Q01DX009 (ip), vehicle: saline
[4] = dose: 25.0 mg/kg/injection, schedule: Q01DX009 (ip), vehicle: saline
[5] = dose: 50.0 mg/kg/injection, schedule: Q01DX009 (ip), vehicle: saline
[6] = dose: 100.0 mg/kg/injection, schedule: Q01DX009 (ip), vehicle: saline
[7] = dose: 25.0 mg/kg/injection, schedule: Q01DX009 (ip), vehicle: saline with Tween-80
[8] = dose: 50.0 mg/kg/injection, schedule: Q01DX009 (ip), vehicle: saline with Tween-80
[9] = dose: 100.0 mg/kg/injection, schedule: Q01DX009 (ip), vehicle: saline with Tween-80
[10] = dose: 12.5 mg/kg/injection, schedule: Q01DX009 (ip), vehicle: saline with Tween-80
[11] = dose: 100.0 mg/kg/injection, schedule: Q01DX009 (ip), vehicle: Klucel (hydroxypropylcellulose) (HPC)
[12] = dose: 200.0 mg/kg/injection, schedule: Q01DX009 (ip), vehicle: Klucel (hydroxypropylcellulose) (HPC)
[13] = dose: 400.0 mg/kg/injection, schedule: Q01DX009 (ip), vehicle: Klucel (hydroxypropylcellulose) (HPC)
[14] = dose: 25.0 mg/kg/injection, schedule: Q01DX009 (ip), vehicle: Klucel (hydroxypropylcellulose) (HPC)
[15] = dose: 50.0 mg/kg/injection, schedule: Q01DX009 (ip), vehicle: Klucel (hydroxypropylcellulose) (HPC)
[16] = dose: 200.0 mg/kg/injection, schedule: Q01DX009 (ip), vehicle: saline with Tween-80

CC[C@@]1(O)C[C@H](OC2CC(N(C)C)C(OC3CC(O)C(OC4CCC(=O)C(C)O4)C(C)O3)C(C)O2)c2c(cc3c(c2O)C(=O)c2c(O)cccc2C3=O)[C@H]1C(=O)OC (some centres not stated)
T/C (dose: 0.75 mg/kg/injection, schedule: Q01DX001 (ip), vehicle: water): 100 % of control and 106 % of control and 112 % of control | T/C (dose: 0.75 mg/kg/injection, schedule: Q01DX009 (ip), vehicle: Klucel (hydroxypropylcellulose) (HPC)): 123 % of control | T/C (dose: 1.5 mg/kg/injection, schedule: Q01DX001 (ip), vehicle: water): 105 % of control and 112 % of control and 120 % of control | T/C (dose: 1.56 mg/kg/injection, schedule: Q01DX001 (ip), vehicle: water): 103 % of control | T/C (dose: 2.16 mg/kg/injection, schedule: Q01DX001 (ip), vehicle: water): 95 % of control and 97 % of control | T/C (dose: 3.0 mg/kg/injection, schedule: Q01DX001 (ip), vehicle: water): 110 % of control and 124 % of control | T/C (dose: 3.0 mg/kg/injection, schedule: Q01DX009 (ip), vehicle: saline): 160 % of control | T/C (dose: 3.13 mg/kg/injection, schedule: Q01DX001 (ip), vehicle: water): 110 % of control | T/C (dose: 3.6 mg/kg/injection, schedule: Q01DX001 (ip), vehicle: water): 91 % of control and 101 % of control | T/C (dose: 6.25 mg/kg/injection, schedule: Q01DX001 (ip), vehicle: water): 124 % of control | T/C (dose: 8.0 mg/kg/injection, schedule: Q01DX001 (ip), vehicle: water): 106 % of control and 120 % of control | T/C (dose: 10.0 mg/kg/injection, schedule: Q01DX001 (ip), vehicle: water): 100 % of control | T/C (dose: 12.0 mg/kg/injection, schedule: Q01DX001 (ip), vehicle: water): 110 % of control and 124 % of control | T/C (dose: 12.5 mg/kg/injection, schedule: Q01DX001 (ip), vehicle: water): 114 % of control and 121 % of control | T/C (dose: 25.0 mg/kg/injection, schedule: Q01DX001 (ip), vehicle: water): 98 % of control

CNCC(C)CN1CCCCCc2ccccc21 (configuration not stated)
T/C [1]: 102 % of control | T/C [2]: 100 % of control | T/C [3]: 95 % of control | T/C [4]: 100 % of control | T/C [5]: 113 % of control

C[CH2][Sn]([CH2]C)([O]S(=O)(=O)CC12CCC(CC1=O)C2(C)C)[O]S(=O)(=O)CC12CCC(CC1=O)C2(C)C
T/C (dose: 1.56 mg/kg/injection, schedule: Q01DX009 (ip), vehicle: saline): 100 % of control | T/C [1]: 108 % of control | T/C [2]: 115 % of control | T/C [3]: 100 % of control | T/C [4]: 96 % of control

CCOC(=O)CCN1CC(C)OC(C)C1 (configuration not stated)
T/C [6]: 118 % of control | T/C (dose: 200.0 mg/kg/injection, schedule: Q01DX009 (ip), vehicle: saline): 115 % of control | T/C (dose: 400.0 mg/kg/injection, schedule: Q01DX009 (ip), vehicle: saline): 118 % of control

Cc1c[n+]2ccccc2n1C
T/C [7]: 99 % of control and 100 % of control | T/C [8]: 94 % of control and 96 % of control | T/C [9]: 93 % of control and 94 % of control

CCN=C=NCCCN(C)C
T/C (dose: 10.0 mg/kg/injection, schedule: Q01DX009 (ip), vehicle: saline): 92 % of control | T/C (dose: 20.0 mg/kg/injection, schedule: Q01DX009 (ip), vehicle: saline): 92 % of control | T/C (dose: 40.0 mg/kg/injection, schedule: Q01DX009 (ip), vehicle: saline): 97 % of control | T/C (dose: 80.0 mg/kg/injection, schedule: Q01DX009 (ip), vehicle: saline): 94 % of control

CCCC(C)C/C(C)=C/C(C)(C)C(CC(=O)N1CCOCC1)C(=O)O (configuration not stated)
T/C [10]: 100 % of control | T/C [7]: 92 % of control | T/C (dose: 25.0 mg/kg/injection, schedule: Q04DX003 (ip), vehicle: saline with Tween-80): 92 % of control | T/C (dose: 50.0 mg/kg/injection, schedule: Q04DX003 (ip), vehicle: saline with Tween-80): 92 % of control

CC(C)CCC[C@@H](C)[C@H]1CC[C@H]2[C@@H]3CC=C4C[C@@H](OC(=O)Cc5ccc(N(CCCl)CCCl)cc5)CC[C@]4(C)[C@H]3CC[C@]12C
T/C (dose: 50.0 mg/kg/injection, schedule: Q01DX009 (oral), vehicle: saline): 108 % of control | T/C (dose: 100.0 mg/kg/injection, schedule: Q01DX009 (oral), vehicle: saline): 104 % of control | T/C (dose: 200.0 mg/kg/injection, schedule: Q01DX009 (oral), vehicle: saline): 110 % of control | T/C (dose: 400.0 mg/kg/injection, schedule: Q01DX009 (oral), vehicle: saline): 104 % of control | T/C (dose: 800.0 mg/kg/injection, schedule: Q01DX009 (oral), vehicle: saline): 110 % of control

O=C(Cl)COc1cccc2ccccc12
T/C [11]: 103 % of control | T/C [12]: 110 % of control | T/C [13]: 106 % of control

COc1cccc(NC(=O)Nc2cccc(Cl)c2)c1
T/C [11]: 103 % of control | T/C [12]: 96 % of control | T/C [13]: 103 % of control

O=C(COc1ccc(Cl)cc1)Nc1cccnc1
T/C [14]: 90 % of control | T/C [15]: 94 % of control

CC(C)(C)OC(=O)NCC(=O)NCC(=O)O (Boc-Gly-Gly-OH)
T/C [5]: 94 % of control | T/C [6]: 96 % of control

CCCC(C#N)(c1ccccc1)c1ccccc1
T/C [15]: 90 % of control | T/C [11]: 90 % of control | T/C [12]: 93 % of control

O=c1[nH]c(=O)n([C@H]2CCCO2)cc1F
T/C [1]: 86 % of control | T/C (dose: 12.5 mg/kg/injection, schedule: Q01DX009 (ip), vehicle: Klucel (hydroxypropylcellulose) (HPC)): 98 % of control | T/C [3]: 86 % of control | T/C [14]: 94 % of control | T/C [4]: 100 % of control | T/C [15]: 97 % of control | T/C [5]: 95 % of control | T/C [11]: 102 % of control | T/C [6]: 102 % of control and 104 % of control

O=C1NC(Cc2ccc(N(CCCl)CCCl)cc2)C(=O)O1 (configuration not stated)
T/C (dose: 0.1 mg/kg/injection, schedule: Q01DX009 (ip), vehicle: saline with Tween-80): 94 % of control | T/C (dose: 0.2 mg/kg/injection, schedule: Q01DX009 (ip), vehicle: saline with Tween-80): 102 % of control | T/C (dose: 0.4 mg/kg/injection, schedule: Q01DX009 (ip), vehicle: saline with Tween-80): 105 % of control | T/C (dose: 3.0 mg/kg/injection, schedule: Q01DX009 (ip), vehicle: saline with Tween-80): 157 % of control | T/C (dose: 3.13 mg/kg/injection, schedule: Q01DX009 (ip), vehicle: saline with Tween-80): 197 % of control | T/C (dose: 6.0 mg/kg/injection, schedule: Q01DX009 (ip), vehicle: saline with Tween-80): 203 % of control | T/C [10]: 155 % of control

CC[CH2][Sn]([CH2]CC)([CH2]CC)[O][Sn]([CH2]CC)([CH2]CC)[CH2]CC
T/C (dose: 0.25 mg/kg/injection, schedule: Q01DX009 (ip), vehicle: saline): 95 % of control | T/C (dose: 0.5 mg/kg/injection, schedule: Q01DX009 (ip), vehicle: saline): 100 % of control | T/C (dose: 0.5 mg/kg/injection, schedule: Q04DX003 (ip), vehicle: saline): 117 % of control | T/C (dose: 1.0 mg/kg/injection, schedule: Q01DX009 (ip), vehicle: saline): 92 % of control | T/C (dose: 1.0 mg/kg/injection, schedule: Q04DX003 (ip), vehicle: saline): 117 % of control

O=Cc1cc([N+](=O)[O-])ccc1Cl
T/C [8]: 95 % of control | T/C [9]: 92 % of control

CC1=NN(c2cccc(Cl)c2)C(=O)C1
T/C [8]: 108 % of control | T/C [9]: 109 % of control | T/C [16]: 101 % of control

CC(C)CC(NC(=O)OC(C)(C)C)C(=O)ON1C(=O)CCC1=O (configuration not stated)
T/C (dose: 6.25 mg/kg/injection, schedule: Q01DX009 (ip), vehicle: saline with Tween-80): 93 % of control | T/C [10]: 93 % of control | T/C [7]: 96 % of control | T/C [8]: 90 % of control and 92 % of control

CS(=O)(=O)c1ccnc2ccccc12
T/C [15]: 91 % of control | T/C [11]: 90 % of control

CCCN1COC(OCC)C(C)(C)C1 (configuration not stated)
T/C [7]: 104 % of control | T/C [8]: 100 % of control | T/C [9]: 98 % of control | T/C [16]: 100 % of control

OCCNCCNc1ccnc2cc(Cl)ccc12
T/C [3]: 89 % of control | T/C [4]: 104 % of control | T/C [5]: 99 % of control | T/C [6]: 110 % of control

C=CS(=O)(=O)c1ccccc1
T/C [10]: 96 % of control | T/C [7]: 94 % of control | T/C [8]: 98 % of control

CCN(CC)CCOC(=O)Cc1cccc2c(=O)cc(-c3ccccc3)oc12
T/C [4]: 109 % of control | T/C [5]: 113 % of control
